These results are taken from patent US20070270418A1, “Inhibitors of P38 and Methods of Using the Same” (priority 2003, published 2007).

Assay type in all cases: biochemical
One assay has as its target T1, Src^p60 (Homo sapiens, UniProt P12931).
T1 construct: purchased Upstate (Charlottesville, Va.)
Description: Src^p60 peptide phosphorylation, time resolved fluorescence. The protocol:
(§1) A selectivity panel is used to test the cross-reactivity of compounds of the invention with the β and γ isoforms of p38 MAP kinase, Src^p60 and JNK2α2. The p38β, p38γ, and JNK2α2 assays are described in Example 4. The Src^p60 assay measures the ability of compounds to inhibit Src^p60-catalyzed phosphorylation of a peptide substrate.
Compounds are serially diluted in DMSO and 1 μL of test compound at 25× final concentration is used. The vehicle control receives DMSO only. Test compounds are pre-incubated with 10 μL of water containing 5.3 units of Src^p60 enzyme (Upstate, Charlottesville, Va.) at room temperature for 15 minutes. […] The reactions are incubated for 1 hr at room temperature. Time resolved fluorescence is read at 665 and 615 nm using the Victor V program LANCE 615/665 on a Victor^2 V plate reader (Perkin Elmer Life Sciences).

In the next assay the target is T2, p38γ (Homo sapiens, UniProt P53778).
T2 construct: p38 MAP Kinases are recombinant human full-length proteins with an amino-terminal GST fusion; GST (N); purchased Upstate (Charlottesville, Va.); host or cells: E. coli
T2 sequence (P53778 1-367): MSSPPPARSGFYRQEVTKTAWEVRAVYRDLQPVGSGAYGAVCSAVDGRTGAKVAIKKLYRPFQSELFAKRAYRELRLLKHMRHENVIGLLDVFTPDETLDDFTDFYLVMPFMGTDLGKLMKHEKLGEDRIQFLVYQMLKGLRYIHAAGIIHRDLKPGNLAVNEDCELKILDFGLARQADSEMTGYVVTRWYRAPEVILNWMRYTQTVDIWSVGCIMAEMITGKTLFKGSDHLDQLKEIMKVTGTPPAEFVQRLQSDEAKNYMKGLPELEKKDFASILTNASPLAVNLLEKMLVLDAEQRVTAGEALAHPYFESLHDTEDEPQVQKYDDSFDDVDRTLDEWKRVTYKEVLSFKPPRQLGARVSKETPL
Nature of the assay: Kinase selectivity, ATF2 phosphorylation ELISA. The protocol:
(§2) All kinases and the substrate ATF2 are acquired from Upstate (Charlottesville, Va.). p38 MAP Kinases are recombinant human full-length proteins with an amino-terminal GST fusion, expressed in and purified from E. coli. ATF2 is a GST fusion protein containing amino acids 19-96 of human ATF2 expressed in E. coli. All proteins were aliquoted and stored at −80° C.
(§3) p38 MAP Kinase assays are performed using an assay buffer containing 25 mM HEPES, pH 7.5, 10 mM MgCl2, 2 mM DTT, 20 mM β-glycerophosphate, 0.1 mM Na3VO4, 40 μM ATP and 1.25 μM of ATF2, together with 6 ng of p38α protein, 12 ng p38β protein, 1.5 ng p38γ, or 0.4 ng JNK2α2. Compounds are serially diluted in DMSO and 2 μL of test compound at 25× final concentration is used. The vehicle control receives DMSO only. Test compounds are pre-incubated with 20 μl of enzyme in kinase buffer (25 mM HEPES, pH 7.5, 10 mM MgCl2, 2 mM DTT, 20 mM 3-glycerophosphate and 0.1 mM Na3VO4) at room temperature for 15 minutes. […] The reactions are incubated for 30 minutes at 37° C. and terminated by the addition of 18 μl of 200 mM EDTA. An ELISA method is used to measure the phosphorylation of ATF2 at Thr 69. High binding 96-well plates (Corning 3369) are coated with 50 μl of kinase reaction for 1 hour at 37° C. The coated plates are washed with 200 μl washing buffer (25 mM Tris HCl, pH 8.3, 192 mM glycine, 0.1% SDS and 0.05% Tween-20) three times. The plates are then washed three times with SuperBlock in TBS (Pierce, 37535). After blocking, plates are incubated with 50 μl of rabbit anti-phospho-ATF2 antibody (Cell Signaling, 9221 L, 1:500) for 30 minutes at 37° C. Plates are washed three times with washing buffer prior to incubation with 50 μl HRP-conjugated goat anti-rabbit antibody (Cell Signaling, 7074, 1:500) for 30 minutes at 37° C. Plates are then washed three times with washing buffer before incubation with 50 μl of Ultra TMB-ELISA (Pierce, 34028) for 8 minutes at room temperature. Finally, 50 μl of phosphoric acid (1 M) is added to stop reactions and plate absorbance is read at 450 nm on a SpectraMax 250 plate reader.
as §1

The target of a further assay is T3, JNK2α2 (Homo sapiens, UniProt P45984).
T3 construct: purchased Upstate (Charlottesville, Va.)
T3 sequence (P45984 whole entry): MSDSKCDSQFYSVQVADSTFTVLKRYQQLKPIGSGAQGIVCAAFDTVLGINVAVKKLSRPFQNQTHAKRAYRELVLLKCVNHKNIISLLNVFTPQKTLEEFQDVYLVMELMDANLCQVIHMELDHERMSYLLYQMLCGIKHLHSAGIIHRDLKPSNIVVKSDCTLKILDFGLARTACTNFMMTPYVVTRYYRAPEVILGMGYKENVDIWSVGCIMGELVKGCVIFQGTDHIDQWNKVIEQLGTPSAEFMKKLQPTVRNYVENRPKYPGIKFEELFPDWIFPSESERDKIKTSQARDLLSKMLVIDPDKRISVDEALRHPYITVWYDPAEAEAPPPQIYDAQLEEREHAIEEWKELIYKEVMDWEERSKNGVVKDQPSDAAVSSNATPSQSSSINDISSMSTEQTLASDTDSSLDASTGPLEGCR
Description: Kinase selectivity, ATF2 phosphorylation ELISA. How it is done: as §2, §3, §1
A general note: In an ELISA, binding on a coated surface is turned into a signal by an enzyme label.

The next assay addresses T4, p38α (Homo sapiens, UniProt Q16539).
T4 construct: p38 MAP Kinases are recombinant human full-length proteins with an amino-terminal GST fusion; GST (N); purchased Upstate (Charlottesville, Va.); host or cells: E. coli
Nature of the assay: p38 MAP Kinase assay, ATF2 phosphorylation (ELISA). Conditions: 40 μM ATP. The essentials: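 Recombinant full-length GST-tagged human p38α (6 ng) pre-incubated 15 min at room temperature with compound, then reacted 30 min at 37° C with 40 μM ATP and 1.25 μM GST-ATF2 (aa 19-96) in HEPES pH 7.5/MgCl2 buffer. EDTA stop; ATF2 Thr69 phosphorylation measured by anti-phospho-ATF2 ELISA at 450 nm.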

T4 sequence (Q16539 whole entry, the tested form may be a part): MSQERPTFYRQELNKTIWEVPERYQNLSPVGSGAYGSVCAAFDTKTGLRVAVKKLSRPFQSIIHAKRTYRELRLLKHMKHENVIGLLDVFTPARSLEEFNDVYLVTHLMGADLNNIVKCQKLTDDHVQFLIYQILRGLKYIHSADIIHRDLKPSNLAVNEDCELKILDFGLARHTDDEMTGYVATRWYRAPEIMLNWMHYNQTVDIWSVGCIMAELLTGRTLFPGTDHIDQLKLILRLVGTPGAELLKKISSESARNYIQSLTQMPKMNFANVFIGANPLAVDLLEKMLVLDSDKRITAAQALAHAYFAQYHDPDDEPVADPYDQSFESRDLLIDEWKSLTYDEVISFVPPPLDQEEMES
T1 sequence (P12931 whole entry): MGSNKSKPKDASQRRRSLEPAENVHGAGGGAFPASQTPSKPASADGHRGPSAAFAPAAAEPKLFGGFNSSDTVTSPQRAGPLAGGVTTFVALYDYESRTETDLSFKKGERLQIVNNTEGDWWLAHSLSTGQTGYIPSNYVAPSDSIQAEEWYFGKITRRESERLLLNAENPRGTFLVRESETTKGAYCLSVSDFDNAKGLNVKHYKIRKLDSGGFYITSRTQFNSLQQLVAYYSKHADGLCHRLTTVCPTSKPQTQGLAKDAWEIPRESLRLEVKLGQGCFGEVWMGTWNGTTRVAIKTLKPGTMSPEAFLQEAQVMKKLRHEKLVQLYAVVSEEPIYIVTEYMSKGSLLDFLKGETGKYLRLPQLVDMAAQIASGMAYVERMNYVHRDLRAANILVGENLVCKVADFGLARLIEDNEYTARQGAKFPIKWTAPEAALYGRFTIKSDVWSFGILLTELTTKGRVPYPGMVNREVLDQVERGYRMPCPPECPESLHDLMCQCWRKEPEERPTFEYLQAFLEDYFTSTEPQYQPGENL

Broadly, the IC50 is the concentration needed to halve the response being measured. Low readings indicate greater potency, high ones weaker potency. Take `CS(=O)(=O)N1CCC(Nc2nccc(-c3c(-c4ccc(F)cc4)nc4occn34)n2)CC1` [CCLXXIX]: the IC50 was > 64 µM at Src^p60, > 100 µM on p38γ, 0.0233 µM against JNK2α2 and 0.00071 µM at p38α.
Compound `CC(=O)N1CCC(Nc2nccc(-c3c(-c4ccc(F)cc4)nc4occn34)n2)CC1` [CCLXXVIII] gave a 50% inhibitory concentration (IC50) against p38α of 0.00238 µM.
As for `CN1[C@@H]2CC[C@H]1C[C@@H](Nc1nccc(-c3c(-c4ccc(F)cc4)nc4occn34)n1)C2` [CCLXXXI], the IC50 was > 9.03 µM against Src^p60, > 100 µM on p38γ, 0.762 µM at JNK2α2 and 0.00491 µM on p38α.
Turning to `Fc1ccc(-c2nc3occn3c2-c2ccnc(NC3CCNCC3)n2)cc1` [CCLXXX], the IC50 against p38α was determined as 0.0131 µM.
The same measure, in the same setting: the same measure for `CN(C)CC(C)(C)CNc1nccc(-c2c(-c3ccc(F)cc3)nc3occn23)n1` [CXIX]: 0.017 µM.
Consider `Fc1ccc(-c2nc3occn3c2-c2ccnc(N[C@@H]3CN4CCC3CC4)n2)cc1` [LXXI], for which the IC50 on Src^p60 is 12.9 µM; at p38γ, > 519 µM; at JNK2α2, 1.59 µM; at p38α, 0.0277 µM.
For `Fc1ccc(-c2nc3occn3c2-c2ccnc(NC3CN4CCC3CC4)n2)cc1` (centres unmarked) [LXXXIV], in that order: > 29.5 µM, > 81.3 µM, 2.26 µM and 0.015 µM.
For `Fc1ccc(-c2nc3occn3c2-c2ccnc(N[C@H]3CN4CCC3CC4)n2)cc1` [LXXXVII], in that order: 25.9 µM, 59.5 µM, 1.04 µM and 0.0087 µM.
